Laboratory results as given in article PMC8440459 (Neurotoxicology, 2021).
Entries after “also recorded” stand apart in the source; their conditions may differ.

Legend:
[1] = molecular target: T1, equine liver GST (Equus caballus, UniProt A0A9L0RPC4); assay: Protection of GST activity from DOPAL, DA or DOPAC; type: biochemical; conditions: 1mM protectant, 100μM DA
[2] = molecular target: T1, equine liver GST; assay: Nitro blue tetrazolium staining of equine liver GST; conditions: 1mM protectant
[3] = molecular target: bovine serum albumin (BSA) (Bos taurus, UniProt P02769); assay: Nitro blue tetrazolium staining of BSA modified by DOPAL; conditions: 0.5mg/mL BSA, 4 hours at 37°C, L-cysteine effect at 1mM
bovine serum albumin (BSA), sequence (P02769 25-607): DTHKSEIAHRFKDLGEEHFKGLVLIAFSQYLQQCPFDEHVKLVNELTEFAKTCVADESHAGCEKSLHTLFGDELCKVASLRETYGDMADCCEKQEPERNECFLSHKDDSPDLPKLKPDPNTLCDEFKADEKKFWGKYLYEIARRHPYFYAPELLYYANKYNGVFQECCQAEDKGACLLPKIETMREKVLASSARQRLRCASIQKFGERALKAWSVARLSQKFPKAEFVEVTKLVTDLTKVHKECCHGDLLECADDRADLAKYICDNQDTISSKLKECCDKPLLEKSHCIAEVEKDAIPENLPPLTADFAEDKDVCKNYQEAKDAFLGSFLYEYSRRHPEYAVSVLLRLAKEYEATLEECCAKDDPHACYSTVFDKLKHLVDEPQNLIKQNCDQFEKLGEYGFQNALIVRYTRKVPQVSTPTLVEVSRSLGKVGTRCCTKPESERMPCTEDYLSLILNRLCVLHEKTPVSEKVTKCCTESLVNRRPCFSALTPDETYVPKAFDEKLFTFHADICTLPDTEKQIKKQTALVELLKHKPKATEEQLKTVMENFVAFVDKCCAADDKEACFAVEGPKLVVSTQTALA

[4] = molecular target: GST isolated from N27 dopaminergic cells (Rattus norvegicus, UniProt P04906); assay: CDNB assay of GST isolated from N27 cells; type: biochemical
GST isolated from N27 dopaminergic cells, sequence (P04906 whole entry): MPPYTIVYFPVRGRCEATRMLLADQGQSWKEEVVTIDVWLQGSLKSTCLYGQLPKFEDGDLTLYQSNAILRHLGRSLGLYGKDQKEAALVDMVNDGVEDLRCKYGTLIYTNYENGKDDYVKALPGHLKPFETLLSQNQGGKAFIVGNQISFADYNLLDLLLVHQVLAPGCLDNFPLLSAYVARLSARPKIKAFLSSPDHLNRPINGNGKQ

[5] = molecular target: T1, equine liver GST; assay: Time dependency of equine liver GST inhibition; type: biochemical; conditions: for GST activity after 24-hour incubation: 100μM inhibitor, compared with 4 hours; for Time dependency of inhibition of GST activity: aliquots after 1, 2 and 4 hours of incubation
[6] = molecular target: T1, equine liver GST; assay: Reversibility of equine liver GST inhibition; type: biochemical; conditions: for Reversibility of inhibition of GST activity: 100μM inhibitor, with or without size exclusion column; for GST activity after application to Bio-Spin 6 Tris Columns / Inhibition of GST after incubation with known reversible inhibitor: 500μM, data not shown; for GST activity after application to Bio-Spin 6 Tris Columns: after column; for Inhibition of GST after incubation with known reversible inhibitor: before column
[7] = molecular target: T1, equine liver GST; type: biochemical; conditions: 4 hours at 37°C
[8] = test system: dopaminergic cells; conditions: ref Schamp and Doorn, 2017; cited from earlier work

NCCC(=O)N[C@@H](Cc1cnc[nH]1)C(=O)O [Carnosine, carnosine]
Protection of GST activity against inhibition by DA [1]: significant protection; also recorded: partial activity retention
Protection against modification of equine liver GST by 100 μM DOPAL (NBT stain) [2]: moderately protective
Reduction of NBT staining of BSA modified by 200μM DOPAL [3]: did not significantly reduce protein modification

NCCc1ccc(O)c(O)c1 [DA, dopamine]
IC50 [4]: 82.3 µM
GST activity after 24-hour incubation [5]: almost completely nulls enzyme activity
Time dependency of inhibition of GST activity [5]: time dependent
Reversibility of inhibition of GST activity [6]: irreversible

O=C(O)Cc1ccc(O)c(O)c1 [DOPAC, 3,4-dihydroxyphenylacetic acid]
IC50 [4]: 260 µM
Time dependency of inhibition of GST activity [5]: time dependent
Reversibility of inhibition of GST activity [6]: irreversible

O=CCc1ccc(O)c(O)c1 [DOPAL, 3,4-dihydroxyphenylacetaldehyde]
IC50 [4]: 31.5 µM
Concentration giving significant inhibition of commercially available GST [7]: 5 µM
GST activity after 24-hour incubation [5]: almost completely nulls enzyme activity
Time dependency of inhibition of GST activity [5]: time dependent
Reversibility of inhibition of GST activity [6]: irreversible
Concentration toxic to dopaminergic cells [8]: 7 µM

N[C@@H](CS)C(=O)O [L-cysteine]
Reduction of NBT staining of BSA modified by 200μM DOPAL [3]: significantly reduced NBT staining

CCCCCCSC[C@H](NC(=O)CC[C@H](N)C(=O)O)C(=O)NCC(=O)O [S-hexylglutathione]
GST activity after application to Bio-Spin 6 Tris Columns [6]: regained the full value of its original activity
Inhibition of GST after incubation with known reversible inhibitor [6]: significant inhibition

O=C(O)/C=C/c1ccc(O)c(O)c1 [caffeic acid]
GST activity after application to Bio-Spin 6 Tris Columns [6]: regained the full value of its original activity
Inhibition of GST after incubation with known reversible inhibitor [6]: significant inhibition
